Assay results reported in patent US4470980A, “Method of increasing oral absorption of β-lactam antibiotics” (priority 1981, dated 1984).
Where two headings read alike, the source gives them in different places.

Tests used:
[1] = Blood level AUC after oral capsule of β-lactam antibiotic with adjuvant in dogs; type: in vivo, dog (Beagles); settings: 300 mg/kg, dog, per os capsule, control, no absorption promotor, carbenicillin by bioassay, read-out: (AUC)° area below the blood level curve
Procedure: Animal: Beagles (body weight 9.9-12.0 kg), 2 animals per test
Drug: β-Lactam antibiotics
Adjuvant: Hydroxylated aromatic carboxylic acids
Dose: β-Lactam antibiotic/adjuvant=300 mg/300 mg/kg
Form of inoculum: Capsule
Route of administration: Per os
Blood sampling: Vein (upper arm)
Object of assay: Blood level
Quantitation: Carbenicillin was determined by bioassay.

in vivo = settings: mouse, urine, po, control without sodium salicylate, cefmetazole 50 mg/kg, gavage, mice, ± standard deviation, 8 mice, read-out: Percent of Dose In Urine
Procedure: The sodium salt of cefmetazole (50 mg/kg) and sodium salicylate (200 mg/kg) dissolved in water were given to mice by gavage. As a control, mice were given an equal dose of the sodium salt of cefmetazole in water without the added sodium salicylate. The mice were place in individual metabolism cages and their urines collected after 24 hours.
The urine samples were acidified to pH 2.0 with 1N phosphoric acid. Acidified samples were applied to 100-200 mesh XAD.2 columns (1.5 ml), and the column washed with H2 O. Cefmetazole was eluted with 2 ml methanol and measured by high pressure liquid chromatography which was carried out using an Altex liquid chromatograph equipped with a dual wavelength recorder (254 nm and 280 nm). The column was a LiChrosorb 10 RP-18 (length=25 cm., internal diameter--4.6 mm) obtained from Chrompack, Whittier, CA. All assays were done at ambient temperatures. A 3 cm guard column of RP-18 column material (Rheodyne, Inc., Berkeley, CA) was also used. […] Concentrations of cefmetazole were determined by measuring peak height at 254 nm and evaluating on the basis of standard curves run under identical conditions.

[2] = cited from earlier work
[3] = gastric acid; prior art; cited from earlier work

## CC1(C)S[C@@H]2[C@H](NC(=O)C(C(=O)O)c3ccccc3)C(=O)N2[C@H]1C(=O)O (stereo partly drawn) [Carbenicillin]
[1]
  AUC: 5200 ng·h/mL

## CO[C@@]1(NC(=O)CSCC#N)C(=O)N2C(C(=O)O)=C(CSc3nnnn3C)CS[C@@H]21 [Cefmetazole]
In vivo
  dose excreted at 24 h: 9.1 ± 7.5%
[2]; oral, prior art
  oral activity: poor oral activity

## CO[C@@]1(NC(=O)C(C(=O)O)c2ccc(O)cc2)C(=O)N2C(C(=O)O)=C(CSc3nnnn3C)CO[C@@H]21 (stereo partly drawn) [Example S-6059]
[2]; in vivo, po
  oral activity: poor oral activity

## CCN1CCN(C(=O)N[C@@H](C(=O)N[C@@H]2C(=O)N3C(C(=O)O)=C(CSc4nnnn4C)CS[C@H]23)c2ccc(O)cc2)C(=O)C1=O [Example T-1551]
[2]; oral, prior art
  oral activity: poor oral activity

## CC1(C)S[C@@H]2[C@H](NC(=O)[C@H](N)c3ccc(O)cc3)C(=O)N2[C@H]1C(=O)O [amoxicillin, 6-[[amino(4-hydroxyphenyl)-acetyl]amino]-3,3-dimethyl-7-oxo-4-thia-1-azabicyclo-[3.2.0]heptane-2-carboxylic acid]
[2]; oral, prior art
  oral activity: poor oral activity

## CC1(C)S[C@@H]2[C@H](NC(=O)[C@H](N)c3ccccc3)C(=O)N2[C@H]1C(=O)O [ampicillin]
[2]; oral, prior art
  oral activity: poor oral activity

## CC1(C)S[C@@H]2[C@H](NC(=O)C(C(=O)Oc3ccccc3)c3ccccc3)C(=O)N2[C@H]1C(=O)O (stereo partly drawn) [carfecillin]
[2]; in vivo, po
  absorbed: 40%
  blood levels: low blood levels of carbenicillin

## CC1(C)S[C@@H]2[C@H](NC(=O)C(C(=O)Oc3ccc4c(c3)CCC4)c3ccccc3)C(=O)N2[C@H]1C(=O)O (stereo partly drawn) [carindacillin]
[2]; in vivo, po
  absorbed: 40%
  blood levels: low blood levels of carbenicillin

## N[C@@H](C(=O)N[C@@H]1C(=O)N2C(C(=O)O)=C(Cl)CS[C@H]12)c1ccccc1 [cefaclor]
[2]; oral, prior art
  absorbed: greater than 80%

## Cc1nnc(SCC2=C(C(=O)O)N3C(=O)[C@@H](NC(=O)[C@H](N)c4ccc(O)cc4)[C@H]3SC2)s1 [cefaporole]
[2]; oral, prior art
  oral activity: poor oral activity

## Cc1nnc(SCC2=C(C(=O)O)N3C(=O)[C@@H](NC(=O)Cn4cnnn4)[C@H]3SC2)s1 [cefaxolin]
[2]; oral, prior art
  oral activity: poor oral activity

## CC1=C(C(=O)O)N2C(=O)[C@@H](NC(=O)[C@H](N)c3ccc(O)cc3)[C@H]2SC1 [cefdioxil]
[2]; in vivo, po
  absorbed: greater than 80%

## CO[C@@]1(NC(=O)Cc2cccs2)C(=O)N2C(C(=O)O)=C(COC(N)=O)CS[C@@H]21 [cefoxitin, (6R-cis)-3-[[(amino-carbonyl)oxy]methyl]-7-methoxy-8-oxo7[(2-thienylacetyl)-amino]-5-thia-1-azabicyclo [4.2.0]oct-2-ene-2-carboxylic acid]
[2]; in vivo, po
  oral activity: poor oral activity

## CO/N=C(\C(=O)N[C@@H]1C(=O)N2C(C(=O)O)=C(COC(N)=O)CS[C@H]12)c1ccco1 [cefuroxime]
[2]; in vivo, po
  oral activity: poor oral activity

## CC(=O)OCC1=C(C(=O)O)N2C(=O)[C@@H](NC(=O)CC#N)[C@H]2SC1 [cephacetrile]
[2]; oral, prior art
  oral activity: poor oral activity

## CC(=O)OCC1=C(C(=O)O)N2C(=O)[C@@H](NC(=O)[C@H](N)c3ccccc3)[C@H]2SC1 [cephaloglycin]
[2]; oral, prior art
  absorbed: greater than 80%

## O=C(Cc1cccs1)N[C@@H]1C(=O)N2C(C(=O)[O-])=C(C[n+]3ccccc3)CS[C@H]12 [cephaloridine]
[2]; oral, prior art
  oral activity: poor oral activity

## CC(=O)OCC1=C(C(=O)O)N2C(=O)[C@@H](NC(=O)CCC[C@@H](N)C(=O)O)[C@H]2SC1 [cephalosporin C]
[2]; oral, prior art
  oral activity: lack of oral activity

## CC(=O)OCC1=C(C(=O)O)N2C(=O)[C@@H](NC(=O)Cc3cccs3)[C@H]2SC1 [cephalothin]
[2]; in vivo, po
  oral activity: poor oral activity

## CC(=O)OCC1=C(C(=O)O)N2C(=O)[C@@H](NC(=O)CSc3ccncc3)[C@H]2SC1 [cephapirin]
[2]; oral, prior art
  oral activity: poor oral activity

## CC1=C(C(=O)O)N2C(=O)[C@@H](NC(=O)[C@H](N)C3=CCC=CC3)[C@H]2SC1 [cephradine]
[2]; in vivo, po
  absorbed: greater than 80%

## CC1(C)S[C@@H]2[C@H](NC(=O)COc3ccccc3)C(=O)N2[C@H]1C(=O)O [penicillin V]
[3]
  acid stability: more acid stable
[2]; oral, prior art
  blood levels: higher blood levels of the active therapeutic agent

## CC1(C)S[C@@H]2[C@H](NC(=O)[C@H](C(=O)O)c3ccsc3)C(=O)N2[C@H]1C(=O)O [ticarcillin]
[2]; oral, prior art
  oral activity: cannot be administered by the oral route
